Reference: paper PMC11596392, “Enhanced Antibacterial, Anti-Inflammatory, and Antibiofilm Activities of Tryptophan-Substituted Peptides Derived from Cecropin A-Melittin Hybrid Peptide BP100” (Molecules, 2024)
Read-outs that look alike come from different tables or passages of the source. Where no end group is shown, it is not given here.

Columns and labels:
B. subtilis (KCTC 3068) = assay type: cell-based, Bacillus subtilis; conditions: broth microdilution in MHB, 37 °C, 24 h, 100% inhibition of growth
Method: (§1) The antibacterial efficacy of the synthesized peptides was evaluated by determining the minimal inhibitory concentrations (MICs) against six standard bacterial strains and five drug-resistant bacterial strains using the Clinical and Laboratory Standards Institute (CLSI) microdilution method. Melittin served as the positive control.
(§2) The minimal inhibitory concentrations (MICs) of the peptides against bacterial strains were determined using a modified broth-microdilution method in accordance with the National Committee for Clinical Laboratory Standards (NCCLS) guidelines. Overnight cultures were diluted in cation-adjusted Mueller–Hinton Broth (MHB) to achieve an inoculum density of 2 × 10^6 CFU/mL. A two-fold serial dilution of the peptide solution (100 μL) was introduced into microtiter plates, followed by the addition of 100 μL of bacterial suspension. The plates were then incubated at 37 °C for 24 h to determine the MICs. Wells containing only culture media served as negative controls, while those with added bacteria functioned as positive controls. The MIC, expressed in μM, was defined as the lowest peptide concentration that prevented visible bacterial growth. This protocol was also employed to determine MICs in the presence of physiological salts (150 mM of NaCl, 4.5 mM of KCl, 6 μM of NH4Cl, 1 mM of MgCl2, 2.5 mM of CaCl2, and 4 μM of FeCl3) and 20% human serum to assess the peptides’ efficacy under conditions more closely resembling physiological environments. All experiments were conducted in triplicate and repeated three times independently to ensure reproducibility and statistical significance of the results.

VREF (ATCC 51559) = assay type: cell-based, vancomycin-resistant Enterococcus faecium; conditions: broth microdilution in MHB, 37 °C, 24 h, 100% inhibition of growth
Method: as §1, §2

E. coli (KCTC 1682) [1] = assay type: cell-based, Escherichia coli
Method: To comprehensively evaluate the therapeutic potential of BP100 and the five selected analogs, we assessed their capacity to maintain antibacterial activity in the presence of physiological salts and serum (Table 4). Antibacterial assays were conducted in an environment supplemented with either […] fresh human serum or physiological salts. […] This enhanced stability in physiologically relevant conditions may have important implications for the potential therapeutic applications of these peptide analogs.
as §2

[2] = test system: MDRPA (CCARM 2095) biofilm formation; assay type: cell-based, multidrug-resistant Pseudomonas aeruginosa; conditions: overnight 37 °C, crystal violet staining; for MBIC50: 50% inhibition; for MBIC90: 90% inhibition
From the text: Bacterial biofilms, comprising communities of bacterial cells encased in a matrix of polysaccharides and nucleic acids, present a significant challenge for conventional antibiotics due to the protective nature of this matrix. Biofilms can enhance bacterial resistance to antibiotics by up to 1000-fold compared to planktonic bacteria. To address this issue, there is an urgent need to discover and develop novel alternative therapeutic agents capable of effectively combating biofilm-forming bacteria. […] Our research specifically focused on evaluating the impact of BP100 and its analogs on biofilm formation and eradication using multidrug-resistant Pseudomonas aeruginosa (MDRPA), a common pathogen responsible for biofilm-mediated nosocomial infections. The adhered biomass was quantified using crystal violet staining, and the minimum biofilm inhibitory concentration (MBIC90) was determined as the lowest concentration required to inhibit 90% of biofilm growth relative to the positive control. […] Human cathelicidin LL-37 is well-documented for its potent antibiofilm properties.
The inhibitory activity of the peptides on biofilm formation was evaluated against multidrug-resistant Pseudomonas aeruginosa (MDRPA) (CCARM 2095) using a biofilm inhibition assay to determine the minimal biofilm inhibitory concentration (MBIC). Peptide solutions were serially diluted in sterile water and aliquoted (100 μL) into a 96-well Costar polypropylene plate (Corning Inc., Corning, NY, USA). An equal volume of MDRPA suspension in Mueller–Hinton Broth (MHB), adjusted to 1 × 10^6 CFU/mL, was added to each well, resulting in a final inoculum density of 5 × 10^5 CFU/mL. Following overnight incubation at 37 °C, bacterial growth was quantified by measuring the optical density (OD) at 595 nm. Planktonic cells were then discarded, and the attached biofilms were washed thrice with distilled water. Residual biofilms were stained with 0.1% crystal violet for five minutes, washed to remove non-adherent dye, and subsequently destained using 95% ethanol. The OD at 595 nm was measured again to assess the biofilm mass. Control wells contained untreated bacteria. The MBIC was defined as the lowest peptide concentration that inhibited any residual crystal violet staining or biofilm formation. All assays were conducted in triplicate to ensure reproducibility. This method allows for the quantitative assessment of the peptides’ ability to prevent biofilm formation, a critical virulence factor in many bacterial infections, particularly those caused by multidrug-resistant strains.

MDRPA (CCARM 2095) = assay type: cell-based, multidrug-resistant Pseudomonas aeruginosa; conditions: broth microdilution in MHB, 37 °C, 24 h, 100% inhibition of growth
Method: as §1, §2

MDRPA (CCARM 2109) = assay type: cell-based, multidrug-resistant Pseudomonas aeruginosa; conditions: broth microdilution in MHB, 37 °C, 24 h, 100% inhibition of growth
Method: as §1, §2

E. coli (KCTC 1682) [3] = assay type: cell-based, Escherichia coli; conditions: broth microdilution in MHB, 37 °C, 24 h, 100% inhibition of growth
Method: as §1, §2

E. coli (KCTC 1682) [4] = assay type: cell-based, Escherichia coli; conditions: 10% Human Serum
S. aureus (KCTC 1621) = assay type: cell-based, Staphylococcus aureus; conditions: 10% Human Serum

| Substance | Minimal Inhibitory Concentration (MIC) (B. subtilis (KCTC 3068)) [µM] | Minimal Inhibitory Concentration (MIC) (VREF (ATCC 51559)) [µM] | MIC (E. coli (KCTC 1682) [1]; 4 μM of FeCl3) [µM] | MIC (E. coli (KCTC 1682) [1]; 6 μM of NH4Cl) [µM] | MIC (E. coli (KCTC 1682) [1]; 1 mM of MgCl2) [µM] | MIC (E. coli (KCTC 1682) [1]; 2.5 mM of CaCl2) [µM] | MIC (E. coli (KCTC 1682) [1]; 4.5 mM of KCl) [µM] | MIC (E. coli (KCTC 1682) [1]; 150 mM of NaCl) [µM] | MIC (E. coli (KCTC 1682) [1]; Control, absence of salts) [µM] | MBIC50 [2] [µM] | MBIC90 [2] [µM] | Minimal Inhibitory Concentration (MIC) (MDRPA (CCARM 2095)) [µM] | Minimal Inhibitory Concentration (MIC) (MDRPA (CCARM 2109)) [µM] | Minimal Inhibitory Concentration (MIC) (E. coli (KCTC 1682) [3]) [µM] | MIC (E. coli (KCTC 1682) [4]) [µM] | MIC (S. aureus (KCTC 1621)) [µM] |
| --- | --- | --- | --- | --- | --- | --- | --- | --- | --- | --- | --- | --- | --- | --- | --- | --- |
| KKWFKKILKWL-NH2 [BP6] | 4 | 8 | 16 | 16 | 8 | 16 | 4 | 8 | 4 | 4 to 8 | 8 | 8 | 16 | 4 | 4 | 4 |
| KKWWKKILKYL-NH2 [BP5] | 2 | 8 | 8 | 4 | 4 | 8 | 4 | 8 | 2 | 4 to 8 | 8 | 8 | 4 | 2 | 4 | 4 |
| KKLFKKIWKWL-NH2 [BP11] | 8 | 16 | 4 | 4 | 8 | 16 | 8 | 16 | 8 | 4 to 8 | 8 | 8 | 16 | 8 | 8 | 8 |
| KKLWKKILKWL-NH2 [BP8] | 8 | 16 | 4 | 8 | 8 | 16 | 4 | 8 | 2 | 4 to 8 | 8 | 8 | 16 | 2 | 4 | 4 |
